Values after ≈ are worked out from the molar mass of the structure shown. Where two headings read alike, the source gives them in different places. Marks after values point to notes of the source that are not given here. *1 amine or outer side, *2 acyl side, *3 side chain or, on linkers, in order; H or OH if unused. Where a SMILES comes first, the peptide text is derived from it. [ ]: non-standard residue; d: D form. ξ: configuration not given here. Trp(1-(1,1-Me2-allyl)) = C=CC(C)(C)n1cc(C[C@H](N)C(=O)O)c2ccccc21; NMeGlu(4S-Me) = C[C@@H](C[C@@H](C(=O)[*:2])N(C)[*:1])C(=O)[*:3]; Tyr(3-NO2) = N[CH](Cc1ccc(O)c([N+](=O)[O-])c1)C(=O)O; X1 = CC(C)(C1CO1)n1cc(CC(N[*:1])C(=O)[*:2])c2ccccc21; X2 = CC(CC(C(=O)[*:2])N(C)[*:1])C(=O)O; Gly(E-crotyl) = C/C=C/C[C@H](N)C(=O)O; ξNle(4,5-dehydro) = CC=CCC(N)C(=O)O; NMeL = CN[CH](CC(C)C)C(=O)O
Key:
[1] = test system: L02, normal human hepatic cell line; assay: MTT cytotoxicity, normal cell line control; format: cell-based
Procedure: (§1) Compounds 1–8 were evaluated for cytotoxicity using HeLa, HepG2, A549, CNE2, and MCF7 cell lines using a previously reported MTT method. The L02 and Huvec-12 cell lines were used as normal cell line controls. All these cell lines were obtained from American Type Culture Collection (ATCC) and cultured according to ATCC recommendations. Cell lines were checked for mycoplasma and profiled via short tandem repeat profiling to confirm their identity by the supplier. All experiments were performed in triplicate with doxorubicin and cis-platinum as control agents.

[2] = test system: Huvec-12, normal human umbilical vein endothelial cell line; assay: MTT cytotoxicity, normal cell line control; format: cell-based; details: Huvec-12 normal cell line
Procedure: as §1

[3] = test system: human tumor cell lines and normal human cell lines; assay: MTT cytotoxicity, summary over human tumor and normal cell lines; format: cell-based; details: HeLa, HepG2, and A549 cell lines, read-out: IC50 values, range over cell lines
Procedure: as §1

MRSA shha-01 = assay: microbe, parasite or virus in culture; format: cell-based; details: Staphylococcus aureus
[4] = test system: HeLa, human cervical carcinoma cell line; assay: MTT cytotoxicity; format: cell-based
Procedure: as §1

[5] = test system: A549, human lung cancer cell line; assay: MTT cytotoxicity; format: cell-based
Procedure: as §1

[6] = test system: CNE2, human nasopharyngeal carcinoma cell line; assay: MTT cytotoxicity; format: cell-based
Procedure: as §1

[7] = test system: MCF7, human breast adenocarcinoma cell line; assay: MTT cytotoxicity; format: cell-based
Procedure: as §1

[8] = test system: HepG2, human hepatocellular carcinoma cell line; assay: MTT cytotoxicity; format: cell-based
Procedure: as §1

M. smegmatis MC^2 155 = assay: Antimycobacterial broth dilution MIC; format: cell-based, Mycobacterium smegmatis
Procedure: (§2) To determine the antibacterial activities of these eight compounds (1–8), a preliminary screening of their antibacterial activities against a panel of Gram-positive and Gram-negative bacteria[6]–[8], M. smegmatis MC^2 155 and M. tuberculosis H37Rv, was conducted using a broth dilution method, [59]. Compounds 1–8 were dissolved in dimethylsulfoxide (DMSO) to give 3200 μg mL^−1 stock solutions. The stock solutions were then serially diluted to concentrations of 0.0625–128 μg mL^−1 with MH broth or 7H9 broth (added with 0.2% glycerol, 0.05% Tween 80). DMSO in MH broth or 7H9 broth was used as a negative control, and broth-containing bacteria was used as positive control. All experiments were performed in triplicate with kanamycin and rifampicin as control agents.

[9] = test system: Escherichia coli ATCC 25922; assay: Antibacterial broth dilution MIC; format: cell-based
Procedure: as §2

[10] = test system: Staphylococcus aureus ATCC29213; assay: Antibacterial broth dilution MIC; format: cell-based
Procedure: as §2

[11] = test system: Acinetobacter baumanii ATCC19606; assay: Antibacterial broth dilution MIC; format: cell-based
Procedure: as §2

[12] = test system: Enterococcus faecalis ATCC29212; assay: Antibacterial broth dilution MIC; format: cell-based
Procedure: as §2

Micrococcus luteus SC-1 = assay: Antibacterial broth dilution MIC; format: cell-based
Procedure: as §2

M. tuberculosis H37Rv = assay: Anti-TB broth dilution MIC; format: cell-based, Mycobacterium tuberculosis
[13] = test system: Mycobacterium tuberculosis H37Rv; design: method as in earlier work; details: M. tuberculosis H37Rv; cited from earlier work
[14] = Epimerization/interconversion of hemiaminal isomers followed by HPLC; format: physicochemical; details: non-aqueous solvents
Source text: An interesting feature we identified during HPLC studies is that compounds 7 and 6 epimerize/interconvert in […] solvents (e.g., MeOH or CH3CN); this interconversion also was noted under neat conditions following periods of long-term storage. […] The possibility interchange of these two pairs of compounds was postulated (Supplementary Fig. 34B). […] It is indeed interesting to consider that cyclic hemiaminal installation in ilamycins C1, C2, E1, and E2 is likely reflective of a transient C33 aldehyde and that the αOH orientation is preferred; presumably this is driven to some extent by the fixed stereochemical orientations at C24 and C32 in each respective case (Fig. 3f). By virtue of this interconversion chemistry it is significant to note that assays carried out with these agents likely involved the use of isomeric mixtures of 6/7 and 3/4 and no one specific isomer.

[15] = Mycolicibacterium smegmatis, MC^2155, read-out: MIC
[16] = Acinetobacter baumannii, ATCC19606
[17] = Mycobacterium tuberculosis, H37RV, broth dilution, triplicate, n = 3

SMILES | IC50 ([1]; Homo sapiens) | IC50 ([2]; Homo sapiens, Endothelial cell) | MIC (MRSA shha-01) | IC50 ([4]; Homo sapiens) | IC50 ([5]; Homo sapiens) | IC50 ([6]; Homo sapiens, CNE-2) | IC50 ([7]; Homo sapiens) | IC50 ([8]; Homo sapiens) | MIC (M. smegmatis MC^2 155; [15]) | MIC ([9]; ATCC25922) | MIC [10] | MIC [11, 16] | MIC [12] | MIC (Micrococcus luteus SC-1; SC1) | MIC (M. tuberculosis H37Rv; [17]) | further results
CC=CCC1NC(=O)C(CC(C)C)N2C(=O)C(CC(C)C2O)N(C)C(=O)C(C)NC(=O)C(Cc2ccc(O)c([N+](=O)[O-])c2)NC(=O)C(CC(C)C)N(C)C(=O)C(Cc2cn(C(C)(C)C3CO3)c3ccccc23)NC1=O (stereo not drawn) [3/4] | 7.4 µM | 33.8 µM | > 123 µM | 3.3 µM | 3.5 µM | 6.8 µM | 4.5 µM | 3.2 µM | 0.12 µM (≈ 0.125 µg/mL) | > 123 µM | > 123 µM | 123 µM (≈ 128 µg/mL) | > 123 µM | > 123 µM | 9.6 µM (≈ 10 µg/mL) | IC50 [3]: 3.2 to 6.2 µM
C=CC(C)(C)n1cc(C[C@@H]2NC(=O)[C@H](C/C=C/C)NC(=O)[C@H](CC(C)C)N3C(=O)[C@H](C[C@H](C)C3O)N(C)C(=O)[C@H](C)NC(=O)[C@H](Cc3ccc(O)c([N+](=O)[O-])c3)NC(=O)[C@H](CC(C)C)N(C)C2=O)c2ccccc21 (stereo partly drawn) [6/7] | 14.9 µM | 18.6 µM | > 125 µM | 3.9 µM | 6.2 µM | 14.9 µM | 3.9 µM | 4.9 µM | 30.7 µM (≈ 31.5 µg/mL) | > 125 µM | > 125 µM | 125 µM (≈ 128 µg/mL) | > 125 µM | > 125 µM | 0.0098 µM (≈ 0.0101 µg/mL) | IC50 [3]: 3.2 to 6.2 µM; fold superior to positive control rifampin (MIC) (M. tuberculosis H37Rv): 30 fold; MIC (M. tuberculosis H37Rv; Mycobacterium tuberculosis, H37RV): ~0.0098 µM (≈ 0.0101 µg/mL); MIC (M. tuberculosis H37Rv; read-out: MIC): 0.0098 µM (≈ 0.0101 µg/mL)
N.N.[Cl][Pt][Cl] [Cis, Cisplatin, reference compound] |  |  |  |  |  |  |  |  |  |  |  |  |  |  |  | IC50 [1]: 22.7 µM; IC50 [2]: 34.5 µM; IC50 [4]: 5.2 µM; IC50 [5]: 9.3 µM; IC50 [6]: 12.9 µM; IC50 [7]: 14.1 µM; IC50 [8]: 2.5 µM
COc1cccc2c1C(=O)c1c(O)c3c(c(O)c1C2=O)C[C@@](O)(C(=O)CO)C[C@@H]3O[C@H]1C[C@H](N)[C@H](O)[C@H](C)O1 [Dox, Doxorubicin, reference compound] | 13 µM | 34.3 µM |  | 0.98 µM | 3.4 µM | 3.6 µM | 3.4 µM | 1.2 µM |  |  |  |  |  |  |  | 
NC[C@H]1O[C@H](O[C@H]2[C@H](O)[C@@H](O[C@H]3O[C@H](CO)[C@@H](O)[C@H](N)[C@H]3O)[C@H](N)C[C@@H]2N)[C@H](O)[C@@H](O)[C@@H]1O [Kanamycin, reference compound] |  |  |  |  |  |  |  |  |  |  | 0.85 µM (≈ 0.412 µg/mL) |  |  |  |  | MIC (M. smegmatis MC^2 155): 1.7^a μM; MIC [9]: 1.7 µM (≈ 0.824 µg/mL); MIC ([11]; Acinetobacter baumanii ATCC19606): 3.4 µM (≈ 1.65 µg/mL); MIC (Micrococcus luteus SC-1): 0.85 µM (≈ 0.412 µg/mL)
CO[C@H]1/C=C/O[C@@]2(C)Oc3c(C)c(O)c4c(O)c(c(/C=N/N5CCN(C)CC5)c(O)c4c3C2=O)NC(=O)/C(C)=C\C=C\[C@H](C)[C@H](O)[C@@H](C)[C@@H](O)[C@@H](C)[C@H](OC(C)=O)[C@@H]1C [Rif, Rifampin, reference compound] |  |  |  |  |  |  |  |  |  |  |  |  |  |  |  | MIC (M. tuberculosis H37Rv; Mycobacterium tuberculosis, H37RV, broth dilution, triplicate, n = 3, read-out: MIC): 0.3 µM (≈ 0.247 µg/mL)
C=CC(C)(C)n1cc(C[C@@H]2NC(=O)[C@H](C/C=C/C)NC(=O)[C@H](CC(C)C)NC(=O)[C@H](CC(C)C)N(C)C(=O)[C@H](C)NC(=O)[C@H](Cc3ccc(O)c([N+](=O)[O-])c3)NC(=O)[C@H](CC(C)C)N(C)C2=O)c2ccccc21 [compound 1, ilamycin B1] (cyclo(A[NMeL]L[Gly(E-crotyl)][Trp(1-(1,1-Me2-allyl))][NMeL][Tyr(3-NO2)])) | > 50 µM | > 50 µM | > 126 µM | > 50 µM | > 50 µM | > 50 µM | > 50 µM | > 50 µM | > 126 µM | > 126 µM | > 126 µM | 126 µM (≈ 128 µg/mL) | > 126 µM | > 126 µM | 98.9 µM (≈ 100 µg/mL) | 
CC=CCC1NC(=O)C(CC(C)C)NC(=O)C(CC(C)C)N(C)C(=O)C(C)NC(=O)C(Cc2ccc(O)c([N+](=O)[O-])c2)NC(=O)C(CC(C)C)N(C)C(=O)C(Cc2cn(C(C)(C)C3CO3)c3ccccc23)NC1=O (stereo not drawn) [compound 2, ilamycin B2] (cyclo([ξNle(4,5-dehydro)][X1][NMeL][Tyr(3-NO2)]A[NMeL]L); configuration not given here) | 24.6 µM | 18.6 µM | > 124 µM | 7.1 µM | 13.8 µM | 24.5 µM | 17.4 µM | 8.9 µM | > 124 µM | > 124 µM | > 124 µM | 124 µM (≈ 128 µg/mL) | > 124 µM | > 124 µM | 2.4 µM (≈ 2.47 µg/mL) | 
CC=CCC1NC(=O)C(CC(C)C)N2C(=O)C(CC(C)C2O)N(C)C(=O)C(C)NC(=O)C(Cc2ccc(O)c([N+](=O)[O-])c2)NC(=O)C(CC(C)C)N(C)C(=O)C(Cc2cn(C(C)(C)C3CO3)c3ccccc23)NC1=O (stereo not drawn) [compound 3, ilamycin C1] |  |  |  |  |  |  |  |  |  |  |  |  |  |  |  | MIC [13]: < 1.3 µg/mL
CC=CCC1NC(=O)C(CC(C)C)NC(=O)C(CC(C)C(=O)O)N(C)C(=O)C(C)NC(=O)C(Cc2ccc(O)c([N+](=O)[O-])c2)NC(=O)C(CC(C)C)N(C)C(=O)C(Cc2cn(C(C)(C)C3CO3)c3ccccc23)NC1=O (stereo not drawn) [compound 5, ilamycin D] (cyclo([X2]L[ξNle(4,5-dehydro)][X1][NMeL][Tyr(3-NO2)]A); configuration not given here) | > 50 µM | > 50 µM | > 121 µM | > 50 µM | > 50 µM | > 50 µM | > 50 µM | > 50 µM | 30.3 µM (≈ 32.1 µg/mL) | > 121 µM | > 121 µM | 121 µM (≈ 128 µg/mL) | > 121 µM | > 121 µM | 1.2 µM (≈ 1.27 µg/mL) | 
C=CC(C)(C)n1cc(C[C@@H]2NC(=O)[C@H](C/C=C/C)NC(=O)[C@H](CC(C)C)N3C(=O)[C@H](C[C@H](C)[C@H]3O)N(C)C(=O)[C@H](C)NC(=O)[C@H](Cc3ccc(O)c([N+](=O)[O-])c3)NC(=O)[C@H](CC(C)C)N(C)C2=O)c2ccccc21 [compound 6, ilamycin E1] |  |  |  |  |  |  |  |  |  |  |  |  |  |  |  | stability [14]: reasonably stable
C=CC(C)(C)n1cc(C[C@@H]2NC(=O)[C@H](C/C=C/C)NC(=O)[C@H](CC(C)C)NC(=O)[C@H](C[C@H](C)C(=O)O)N(C)C(=O)[C@H](C)NC(=O)[C@H](Cc3ccc(O)c([N+](=O)[O-])c3)NC(=O)[C@H](CC(C)C)N(C)C2=O)c2ccccc21 [compound 8, ilamycin F] (cyclo(A[NMeGlu(4S-Me)]L[Gly(E-crotyl)][Trp(1-(1,1-Me2-allyl))][NMeL][Tyr(3-NO2)])) | > 50 µM | > 50 µM | > 123 µM | > 50 µM | > 50 µM | > 50 µM | > 50 µM | > 50 µM | 30.7 µM (≈ 32 µg/mL) | > 123 µM | > 123 µM | 123 µM (≈ 128 µg/mL) | > 123 µM | > 123 µM | 1.2 µM (≈ 1.25 µg/mL) | 

From paper PMC5577134 (Nature Communications, 2017)
